Experimental data taken from US20240216369A1, “THE USE OF A SPLICING MODULATOR FOR A TREATMENT SLOWING PROGRESSION OF HUNTINGTON'S DISEASE” (Novartis AG, priority 2019, published 2024).

Columns and labels:
mHTT = assay: Mutant and total HTT multiplex HTRF assay in Q48 HTT human embryonic stem cell line: mHTT; type: cell-based; settings: Q48 HTT hESC, 48 hours
Method in brief: (§1)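 Q48 HTT hESCs from HD donors were treated with compound for 48 h at 37 °C after 24 h adherence, then lysed. Lysates were read by multiplex HTRF with N-terminal donor, polyQ (MW1) and post-polyQ (MAB2166) antibodies for 4-6 h at RT. Donor/acceptor ratios give relative mHTT and tHTT; pIC50 reported.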

tHTT = assay: Mutant and total HTT multiplex HTRF assay in Q48 HTT human embryonic stem cell line: tHTT; type: cell-based; settings: Q48 HTT hESC, 48 hours
Method in brief: as §1

Compound | Rating (based on mHTT potency) (mHTT) | mHTT pIC50 (mHTT) | tHTT pIC50 (tHTT)
CN(c1nnc(-c2c(O)cc(-c3cn[nH]c3)cc2Cl)s1)C1CC(C)(C)NC(C)(C)C1 [Compound 9, 3-chloro-2-(5-(methyl(2,2,6,6-tetramethylpiperidin-4-yl)amino)-1,3,4-thiadiazol-2-yl)-5-(1H-pyrazol-4-yl)phenol] | **** (a pIC50 value between 7.0 and 7.5 is indicated by four stars (****)) | 7.4435 | 7.353
C[C@@H]1CC(Oc2ccc(-c3ccc(-n4cccn4)cc3O)nn2)C[C@@H](C)N1 (stereo partly drawn) [Compound 70, 2-(6-(((2R,6R)-2,6-dimethylpiperidin-4-yl)oxy)pyridazin-3-yl)-5-(1H-pyrazol-1-yl)phenol] | * (a pIC50 value between 5 and 6 is indicated by a single star (*)) | 5.999 | 5.806
CN(c1ccc(-c2ccc(-c3ccnc(O)c3)cc2O)nn1)C1CC(C)(C)NC(C)(C)C1 [Compound 8, 4-(3-hydroxy-4-(6-(methyl(2,2,6,6-tetramethylpiperidin-4-yl)amino)pyridazin-3-yl)phenyl)pyridin-2-ol] | **** (a pIC50 value between 7.0 and 7.5 is indicated by four stars (****)) | 7.4855 | 7.4435
Oc1cc(-c2cn[nH]c2)cc(F)c1-c1nnc(N2CC3(CCNCC3)C2)s1 [Compound 36, 2-(5-(2,7-diazaspiro[3.5]nonan-2-yl)-1,3,4-thiadiazol-2-yl)-3-fluoro-5-(1H-pyrazol-4-yl)phenol] | *** (a pIC50 value between 6.5 and 7.0 is indicated by three stars (***)) | 6.996 | 6.827
Cc1cc2cc(O)c(-c3ccc(N(C)C4CC(C)(C)NC(C)(C)C4)nn3)cc2c(C)n1 [Compound 11, 1,3-dimethyl-7-(6-(methyl(2,2,6,6-tetramethylpiperidin-4-yl)amino)pyridazin-3-yl)isoquinolin-6-ol] | **** (a pIC50 value between 7.0 and 7.5 is indicated by four stars (****)) | 7.3875 | 7.3965
CN(c1ccc(-c2cc3ccc(C(N)=O)nc3cc2O)nn1)C1CC(C)(C)NC(C)(C)C1 [Compound 21, 7-hydroxy-6-(6-(methyl(2,2,6,6-tetramethylpiperidin-4-yl)amino)pyridazin-3-yl)quinoline-2-carboxamide] | **** (a pIC50 value between 7.0 and 7.5 is indicated by four stars (****)) | 7.203 | 7.221
COc1ccc2cc(-c3ccc(N(C)C4CC(C)(C)NC(C)(C)C4)nn3)c(O)cc2c1 [Compound 57, 7-methoxy-3-(6-(methyl(2,2,6,6-tetramethylpiperidin-4-yl)amino)pyridazin-3-yl)naphthalen-2-ol] | *** (a pIC50 value between 6.5 and 7.0 is indicated by three stars (***)) | 6.7085 | 6.791
CN(c1ccc(-c2cc3c(C(N)=O)nccc3cc2O)nn1)C1CC(C)(C)NC(C)(C)C1 [Compound 51, 6-hydroxy-7-(6-(methyl(2,2,6,6-tetramethylpiperidin-4-yl)amino)pyridazin-3-yl)isoquinoline-1-carboxamide] | *** (a pIC50 value between 6.5 and 7.0 is indicated by three stars (***)) | 6.801 | 6.779
CCN1CCC(c2cn3c(=O)cc(-c4ccc5nn(C)cc5c4)nc3c(C)n2)CC1 [Compound 44, 7-(1-ethylpiperidin-4-yl)-9-methyl-2-(2-methyl-2H-indazol-5-yl)-4H-pyrazino[1,2-a]pyrimidin-4-one] | *** (a pIC50 value between 6.5 and 7.0 is indicated by three stars (***)) | 6.869 | 6.7695
COc1cc(-c2sc(C)nc2C)ccc1-c1nnc(N(C)C2CC(C)(C)NC(C)(C)C2)s1 [Compound 62, 5-(4-(2,4-dimethylthiazol-5-yl)-2-methoxyphenyl)-N-methyl-N-(2,2,6,6-tetramethylpiperidin-4-yl)-1,3,4-thiadiazol-2-amine] | *** (a pIC50 value between 6.5 and 7.0 is indicated by three stars (***)) | 6.6555 | 6.6405
CN(c1ccc(-c2cc3nccnc3cc2O)nn1)C1CC(C)(C)NC(C)(C)C1 [Compound 39, 7-(6-(methyl(2,2,6,6-tetramethylpiperidin-4-yl)amino)pyridazin-3-yl)quinoxalin-6-ol] | *** (a pIC50 value between 6.5 and 7.0 is indicated by three stars (***)) | 6.946 | 6.9105
Cc1ccc2cc(O)c(-c3ccc(N(C)C4CC(C)(C)NC(C)(C)C4)nn3)cc2n1 [Compound 15, 2-methyl-7-(6-(methyl(2,2,6,6-tetramethylpiperidin-4-yl)amino)pyridazin-3-yl)quinolin-6-ol] | **** (a pIC50 value between 7.0 and 7.5 is indicated by four stars (****)) | 7.349 | 7.283
CN(c1ccc(-c2cc3c(O)nccc3cc2O)nn1)C1CC(C)(C)NC(C)(C)C1 [Compound 25, 7-(6-(methyl(2,2,6,6-tetramethylpiperidin-4-yl)amino)pyridazin-3-yl)isoquinoline-1,6-diol] | **** (a pIC50 value between 7.0 and 7.5 is indicated by four stars (****)) | 7.161 | 7.128
CN(c1ccc(-c2cc3cn(C)nc3cc2O)nn1)C1CC(C)(C)NC(C)(C)C1 [Compound 40, 2-methyl-5-(6-(methyl(2,2,6,6-tetramethylpiperidin-4-yl)amino)pyridazin-3-yl)-2H-indazol-6-ol] | *** (a pIC50 value between 6.5 and 7.0 is indicated by three stars (***)) | 6.927 | 6.994
COc1cc(-c2cn[nH]c2)cc(O)c1-c1ccc(N(C)C2CC(C)(C)NC(C)(C)C2)nn1 [Compound 58, 3-methoxy-2-(6-(methyl(2,2,6,6-tetramethylpiperidin-4-yl)amino)pyridazin-3-yl)-5-(1H-pyrazol-4-yl)phenol] | *** (a pIC50 value between 6.5 and 7.0 is indicated by three stars (***)) | 6.698 | 6.6555
CN(c1ccc(-c2cc3cnn(C)c3cc2O)nn1)C1CC(C)(C)NC(C)(C)C1 [Compound 28, 1-methyl-5-(6-(methyl(2,2,6,6-tetramethylpiperidin-4-yl)amino)pyridazin-3-yl)-1H-indazol-6-ol] | **** (a pIC50 value between 7.0 and 7.5 is indicated by four stars (****)) | 7.111 | 7.1045
CN(c1ccc(-c2ccc(-c3cn[nH]c3)cc2O)nn1)[C@H]1C[C@]2(C)CC[C@](C)(C1)N2 [Compound 3, 2-(6-(((1R,5S)-1,5-dimethyl-8-azabicyclo[3.2.1]octan-3-yl)(methyl)amino)pyridazin-3-yl)-5-(1H-pyrazol-4-yl)phenol] | ***** (a pIC50 value above 7.5 is indicated by five stars (*****)) | 7.717 | 7.609
CC1(C)CC(Oc2ccc(-c3c(O)cc(-c4cn[nH]c4)cc3F)nn2)CC(C)(C)N1 [Compound 7, 3-fluoro-5-(1H-pyrazol-4-yl)-2-(6-((2,2,6,6-tetramethylpiperidin-4-yl)oxy)pyridazin-3-yl)phenol] | ***** (a pIC50 value above 7.5 is indicated by five stars (*****)) | 7.5265 | 7.51
CN(c1ccc(-c2cc3c(cc2O)C(=O)CC3)nn1)C1CC(C)(C)NC(C)(C)C1 [Compound 66, 6-hydroxy-5-(6-(methyl(2,2,6,6-tetramethylpiperidin-4-yl)amino)pyridazin-3-yl)-2,3-dihydro-1H-inden-1-one] | *** (a pIC50 value between 6.5 and 7.0 is indicated by three stars (***)) | 6.5815 | 6.637
Cc1cc2cc(-c3ccc(N(C)C4CC(C)(C)NC(C)(C)C4)nn3)c(O)cc2c(C#N)n1 [Compound 10, 7-hydroxy-3-methyl-6-(6-(methyl(2,2,6,6-tetramethylpiperidin-4-yl)amino)pyridazin-3-yl)isoquinoline-1-carbonitrile] | **** (a pIC50 value between 7.0 and 7.5 is indicated by four stars (****)) | 7.4395 | 7.3875
Cc1ncc2cc(-c3ccc(N(C)C4CC(C)(C)NC(C)(C)C4)nn3)c(O)cc2n1 [Compound 60, 2-methyl-6-(6-(methyl(2,2,6,6-tetramethylpiperidin-4-yl)amino)pyridazin-3-yl)quinazolin-7-ol] | *** (a pIC50 value between 6.5 and 7.0 is indicated by three stars (***)) | 6.6725 | 6.7
Cc1ccc2cc(-c3ccc(N(C)C4CC(C)(C)NC(C)(C)C4)nn3)c(O)cc2n1 [Compound 47, 2-methyl-6-(6-(methyl(2,2,6,6-tetramethylpiperidin-4-yl)amino)pyridazin-3-yl)quinolin-7-ol] | *** (a pIC50 value between 6.5 and 7.0 is indicated by three stars (***)) | 6.8415 | 6.92
